IC50 data for 84 molecules are collected here from ChEMBL document CHEMBL4017441, “Mitigating the inhibition of human bile salt export pump by drugs: opportunities provided by physicochemical property modulation, in silico modeling, and structural modification” (Drug Metab Dispos, 2012).

The structures appear in SMILES notation. Where a name gives a salt, the structure may show the parent alone.

A word on the IC50: it is the concentration needed to halve the response being measured.

The assay addresses Bile salt export pump (Homo sapiens, UniProt O95342). The assay is classed as ADME.

In the case of `C[C@H]1C[C@@H]2[C@H]([C@@H](O)C[C@@]3(C)[C@H]2CC[C@]3(O)C(=O)CO)[C@@]2(C)C=CC(=O)C=C12` [METHYLPREDNISOLONE], the half-maximal inhibitory concentration (IC50) was 33 µM.
As to `CN1CCN(C2=Nc3cc(Cl)ccc3Nc3ccccc32)CC1` [CLOZAPINE], the 50% inhibitory concentration (IC50) was 75.1 µM.
The same measure for `CCC(=O)OC(OP(=O)(CCCCc1ccccc1)CC(=O)N1CC(C2CCCCC2)CC1C(=O)O)C(C)C` (centres undefined): less than 13.3 µM; for `CC1=C(C(=O)O)N2C(=O)[C@@H](NC(=O)C(N)C3=CCC=CC3)C2SC1` (some centres undefined): more than 1000 µM; for `CCN(CC)Cc1cc(Nc2ccnc3cc(Cl)ccc23)ccc1O` [AMODIAQUINE]: 77.8 µM.
As for `CC(O)(P(=O)(O)O)P(=O)(O)O` [ETIDRONIC ACID], the IC50 was more than 1000 µM.
The same measure for `CN(CCOc1ccc(NS(C)(=O)=O)cc1)CCc1ccc(NS(C)(=O)=O)cc1` [DOFETILIDE]: 708 µM; for `Cc1cccc(C)c1CNc1cc(C(=O)NCCO)cn2c(C)c(C)nc12` [LINAPRAZAN]: less than 10 µM.
The same measure for `CN(C)CCOC(c1ccc(Cl)cc1)c1ccccn1` (centres undefined) [CARBINOXAMINE]: more than 1000 µM.
For the molecule `C[C@]12CC[C@@H]3c4ccc(O)cc4CC[C@H]3[C@@H]1CCC2=O` [ESTRONE], the half-inhibitory concentration (IC50) is more than 1000 µM.
The same measure for `COc1cc(C(=O)NCCCCCC(=O)O)cc(OC)c1OC` [CAPOBENIC ACID]: more than 1000 µM; for `CC(=O)Nc1ccccc1OC[C@@](C)(O)CNC1CCN(Cc2ccc(Cl)cc2)CC1`: 71.5 µM; for `COc1cc2c(cc1OC)C(=O)C(CC1CCN(Cc3ccccc3)CC1)C2` (centres undefined) [DONEPEZIL]: 146 µM.
Next, `Cc1ccc(-n2c3c/c(=N\C(C)C)c(Nc4ccc(Cl)cc4)cc-3nc3ccccc32)cc1`: 135 µM; `Nc1nc2ccc(OC(F)(F)F)cc2s1` [RILUZOLE]: 139 µM.
Consider `CCCc1nn(C)c2c(=O)[nH]c(-c3cc(S(=O)(=O)N4CCN(C)CC4)ccc3OCC)nc12`, for which the IC50 was found to be 16.4 µM.
The same measure for `Bc1ccc(S(=O)(=O)N2CCN(C(=O)N3CCN(c4cc(C)ncn4)CC3)CC2)cc1`: less than 10 µM; for `NS(=O)(=O)c1cc2c(cc1C(F)(F)F)NCNS2(=O)=O` [HYDROFLUMETHIAZIDE]: more than 1000 µM.
Turning to `COC(=O)[C@H](Cc1ccccc1)NC(=O)[C@@H](N)CC(=O)O`, the half-maximal inhibitory concentration (IC50) was more than 1000 µM.
Next, `COc1ccnc(-c2cccc(C)c2[S+]([O-])c2nc3ccccc3[nH]2)c1` (centres undefined): less than 10 µM.
For the molecule `CCCc1ncc(-c2ccnc(Nc3ccc(S(=O)(=O)NCCOC)cc3)n2)n1CC`, the IC50 was less than 10 µM.
The same measure for `CCN1CCN(C(=O)N[C@@H](C(=O)N[C@@H]2C(=O)N3[C@@H]2SC(C)(C)[C@@H]3C(=O)O)c2ccccc2)C(=O)C1=O` [PIPERACILLIN]: 197 µM.
Next, `CN1CC(=O)N=C1NC(=O)Nc1cccc(Cl)c1` [FENOBAM ANHYDROUS]: more than 1000 µM; `CO[C@H]1/C=C/O[C@@]2(C)Oc3c(C)c(O)c4c(O)c(c(/C=N/N5CCN(C)CC5)c(O)c4c3C2=O)NC(=O)/C(C)=C\C=C\[C@H](C)[C@H](O)[C@@H](C)[C@@H](O)[C@H](C)[C@H](OC(C)=O)[C@H]1C`: less than 10 µM.
For the molecule `O=CN(O)C(CCc1ncccn1)CS(=O)(=O)N1CCN(c2ccc(Cl)cn2)CC1` (centres undefined), the half-maximal inhibitory concentration (IC50) was less than 10 µM.
The same measure for `c1ccc2[nH]c(-c3cscn3)nc2c1` [THIABENDAZOLE]: 560 µM; for `CCCCC[C@H](O)/C=C/[C@H]1[C@H](O)CC(=O)[C@@H]1C/C=C\CCCC(=O)O` [DINOPROSTONE]: more than 1000 µM; for `CC(=O)NC[C@H]1CN(c2ccc(C(=O)c3cnc4ccc(Cl)cn34)cc2)C(=O)O1`: 27.6 µM.
`COc1ccc(OC)c(C(O)C(C)N)c1` (centres undefined) [METHOXAMINE]: the half-maximal inhibitory concentration (IC50) is more than 1000 µM.
The same measure for `CC(C[N+](C)(C)C)OC(N)=O` (centres undefined) [BETHANECHOL]: more than 1000 µM; for `N[C@@H](Cc1ccc(N(CCCl)CCCl)cc1)C(=O)O`: 93.7 µM; for `CC(CCC(=O)O)C1CCC2C3C(=O)CC4CC(=O)CCC4(C)C3CC(=O)C12C` (centres undefined): 202 µM.
For `N[C@@H](CC(=O)N1CCn2c(nnc2C(F)(F)F)C1)Cc1cc(F)c(F)cc1F` [SITAGLIPTIN], the IC50 came to 148 µM.
Next, `CN1C(=O)CC(c2ccccc2)C1=O` (centres undefined) [PHENSUXIMIDE]: more than 1000 µM; `CC(=O)Nc1ccccc1OC[C@@H](O)CNC1CCN(Cc2ccc(Cl)cc2)CC1`: 55.6 µM.
With `Cc1cc(C)nc(NS(=O)(=O)c2ccc(N)cc2)n1` [SULFAMETHAZINE], the concentration for half-maximal inhibition (IC50) is more than 1000 µM.
Next, `NCCc1c[nH]cn1` [HISTAMINE]: more than 1000 µM.
As for `Cc1c(C(=O)NN2CCCCC2)nn(-c2ccc(Cl)cc2Cl)c1-c1ccc(Cl)cc1` [RIMONABANT], the IC50 is less than 10 µM.
Take `C[C@H]1O[C@@H](O[C@H]2[C@@H](O)C[C@H](O[C@H]3[C@@H](O)C[C@H](O[C@H]4CC[C@@]5(C)[C@H](CC[C@@H]6[C@@H]5CC[C@]5(C)[C@@H](C7=CC(=O)OC7)CC[C@]65O)C4)O[C@@H]3C)O[C@@H]2C)C[C@H](O)[C@@H]1O` [DIGITOXIN]: the IC50 is less than 10 µM.
The same measure for `C1CCc2nnnn2CC1` [PENTYLENETETRAZOL]: more than 1000 µM; for `O=C(O)c1cc2cc(O)ccc2n1Cc1ccc(Cl)c(Cl)c1`: 49.8 µM; for `C[C@H]1C[C@H]2[C@@H]3CCC4=CC(=O)C=C[C@]4(C)[C@@]3(Cl)[C@@H](O)C[C@]2(C)[C@@]1(O)C(=O)CO` [BECLOMETHASONE]: 23.7 µM.
Regarding `CCc1cccc(C)c1CNC1=C2NC(C)=C(C)N2CC(C(N)=O)=C1`, the IC50 was less than 10 µM.
The same measure for `COc1cc(Nc2ncc(F)c(Nc3ccc4c(n3)NC(=O)C(C)(C)O4)n2)cc(OC)c1OC` [R-406]: 197 µM; for `Cc1noc(NS(=O)(=O)c2ccc(N)cc2)c1C` [SULFISOXAZOLE]: more than 1000 µM.
Consider `CCOC(N)=O`, for which the IC50 was more than 1000 µM.
Next, `Cc1oncc1C(=O)Nc1ccc(C(F)(F)F)cc1` [LEFLUNOMIDE]: 110 µM; `O=CN(O)C(CCCc1ncccn1)CS(=O)(=O)N1CCN(c2ccc(F)cc2)CC1` (centres undefined): less than 16.4 µM.
Next, `CN[C@H]1CC[C@@H](c2ccc(Cl)c(Cl)c2)c2ccccc21` [SERTRALINE]: 29.3 µM; `Cc1nnc(NS(=O)(=O)c2ccc(N)cc2)s1` [SULFAMETHIZOLE]: more than 1000 µM; `NC(CO)C(=O)NNCc1ccc(O)c(O)c1O` (centres undefined) [BENSERAZIDE]: 117 µM.
Regarding `CN1[C@@H]2C[C@@H](OC(=O)[C@H](CO)c3ccccc3)C[C@H]1[C@@H]1O[C@@H]12` [SCOPOLAMINE], the IC50 is more than 1000 µM.
Next, `CC(C)C(=O)Nc1ccc([N+](=O)[O-])c(C(F)(F)F)c1` [FLUTAMIDE]: 60.8 µM; `CC(=O)Oc1ccc2c(c1)cc(C(=O)O)n2Cc1ccc(Cl)c(Cl)c1`: 55.2 µM.
On to `CC(C)(C(=O)c1cccnc1)c1cccnc1` [METYRAPONE], for which the IC50 worked out at 229 µM.
In the case of `C[n+]1ccccc1/C=N/O` [PRALIDOXIME], the IC50 was more than 1000 µM.
Turning to `Cc1ccc(NC(=O)c2cccc3c2oc2ccccc23)cc1NC(=O)c1cccc(CN2CCN(C)CC2)c1`, the IC50 was less than 10 µM.
Next, `Cc1ccc(S(=O)(=O)NC(=O)NN2CC3CCCC3C2)cc1` (centres undefined) [GLICLAZIDE]: 591 µM; `CC1(C)O[C@@H]2[C@@H](CO[C@@]3(COS(N)(=O)=O)OC(C)(C)O[C@@H]23)O1` [TOPIRAMATE]: more than 1000 µM; `O=C(O)c1cc2scnc2n1Cc1ccc(Cl)c(Cl)c1`: 22.4 µM.
The same measure for `CC(C)(C)NCC(O)COc1cccc2c1CC(O)C(O)C2` (centres undefined) [NADOLOL]: more than 1000 µM; for `S=P(N1CC1)(N1CC1)N1CC1` [THIOTEPA]: more than 1000 µM.
The same measure for `c1ccc2c(CCC3CCNCC3)c[nH]c2c1` [INDALPINE]: more than 1000 µM; for `CC(C)(C)NC[C@H](O)COc1nsnc1N1CCOCC1` [TIMOLOL]: more than 1000 µM; for `CCCNC(C)(C)COC(=O)c1ccccc1` [MEPRYLCAINE]: more than 1000 µM.
For the molecule `CN1C[C@H](CNC(=O)OCc2ccccc2)C[C@@H]2c3cccc4c3c(cn4C)C[C@H]21` [METERGOLINE], the IC50 is less than 10 µM.
The same measure for `COc1cc(NS(=O)(=O)c2ccc(N)cc2)nc(OC)n1` [SULFADIMETHOXINE]: more than 1000 µM; for `CC(C)(Oc1ccc(CCNC(=O)c2ccc(Cl)cc2)cc1)C(=O)O` [BEZAFIBRATE]: 181 µM.
The same measure for `CCCc1ncc(C[n+]2ccccc2C)c(N)n1` [AMPROLIUM ION]: more than 1000 µM.
Regarding `Fc1ccc([C@@H]2CCNC[C@H]2COc2ccc3c(c2)OCO3)cc1` [PAROXETINE HYDROCHLORIDE], the IC50 was 68.9 µM.
Take `CN(C)CCC(c1ccccc1)c1ccccn1` (centres undefined) [PHENIRAMINE MALEATE]: the half-inhibitory concentration (IC50) was more than 1000 µM.
For the molecule `Clc1ccc(Nc2nnc(Cc3ccncc3)c3ccccc23)cc1` [VATALANIB], the IC50 was less than 10 µM.
The same measure for `C=CC1=C(C(=O)O)N2C(=O)[C@@H](NC(=O)/C(=N\OCC(=O)O)c3csc(N)n3)[C@H]2SC1` [CEFIXIME]: more than 1000 µM; for `NS(=O)(=O)c1cc2c(cc1C(F)(F)F)NC(Cc1ccccc1)NS2(=O)=O` (centres undefined) [BENDROFLUMETHIAZIDE]: 69.6 µM; for `O=C1CCC(N2C(=O)c3ccccc3C2=O)C(=O)N1` (centres undefined) [THALIDOMIDE]: more than 1000 µM.
For the molecule `CCOC(=O)c1cncn1[C@H](C)c1ccccc1` [ETOMIDATE], the IC50 is 61.6 µM.
The same measure for `CNC(=O)Oc1ccc2c(c1)C1(C)CCN(C)C1N2C` (centres undefined): more than 1000 µM; for `NC(=O)c1ccccc1O` [SALICYLAMIDE]: more than 1000 µM.
Turning to `CCCC(=O)OCOC(=O)C1=C(C)NC(C)=C(C(=O)OC)C1c1cccc(Cl)c1Cl` (centres undefined) [CLEVIDIPINE], the 50% inhibitory concentration (IC50) was determined as 36.4 µM.
Next, `Cc1ccnc2c1NC(=O)c1cccnc1N2C1CC1` [NEVIRAPINE]: 295 µM; `COc1c(C(=O)O)n(Cc2ccc(Cl)c(Cl)c2)c2ccc(O)cc12`: 39.6 µM.
The same measure for `CCOCCNS(=O)(=O)c1ccc(Nc2nccc(-c3cnc(C)n3C(C)C)n2)cc1`: less than 10 µM.
With `C[C@H](N)[C@H](O)c1cccc(O)c1` [METARAMINOL], the half-maximal inhibitory concentration (IC50) is more than 1000 µM.
The same measure for `C[C@@H]1C[C@H]2[C@@H]3CCC4=CC(=O)C=C[C@]4(C)[C@@]3(F)[C@@H](O)C[C@]2(C)[C@H]1C(=O)CO` [DESOXIMETASONE]: 16.4 µM.
